Assay results as given in patent US20100298141A1, “SUBSTITUTED PYRIDINE N-OXIDE HERBICIDES” (E. I. DU PONT DE NEMOURS AND COMPANY, priority 2007, published 2010).

Assays:
barnyardgrass [1] = experiment: Test A pre-/postemergence greenhouse test; assay type: in vivo, Echinochloa crus-galli; conditions: for Plant response rating, Barnyardgrass: 0 to 100 scale where 0 is no effect and 100 is complete control; for Barnyardgrass plant response rating: 0 to 100 scale
Outline: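 Each test compound, dissolved in a non-phytotoxic solvent mixture with surfactant, was sprayed directly onto seeded soil (loam/sand blend) and, at the same moment, onto seedlings carrying one to two leaves. Around ten greenhouse days later, plants were rated visually for injury relative to untreated controls.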

cocklebur = experiment: Test C pre-/postemergence test; assay type: in vivo, Xanthium strumarium; conditions: for Plant response rating, Cocklebur: scale 0 to 100, 0 no effect, 100 complete control
Outline: (§1)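 Test chemicals were formulated with surfactant in a non-phytotoxic solvent and sprayed both on freshly planted seeds (preemergence) and on 1- to 4-leaf plants of 2–18 cm (postemergence). Flooded-paddy pots received compound directly into 3 cm of standing water, maintained for the test.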

kochia = experiment: Test C pre-/postemergence test; assay type: in vivo, Kochia scoparia
Outline: as §1

velvetleaf = experiment: Test C pre-/postemergence test; assay type: in vivo, Abutilon theophrasti
Outline: as §1

green foxtail = experiment: Test F preemergence test; assay type: in vivo, Setaria viridis; conditions: scale 0 to 100
Outline: (§2)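 Compound in a non-phytotoxic solvent blend with surfactant is applied preemergence to planted seeds or postemergence to sugarcane plants. Plants and controls stay in the greenhouse 14 to 21 days before visual comparison.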

mustard = experiment: Test F preemergence test; assay type: in vivo, Brassica nigra; conditions: scale 0 to 100
Outline: as §2

dallisgrass = experiment: Test F preemergence test; assay type: in vivo, Paspalum dilatatum; conditions: scale 0 to 100
Outline: as §2

barnyardgrass [2] = experiment: Test F preemergence test; assay type: in vivo, Echinochloa crus-galli
Outline: as §2

broadleaf signalgrass = experiment: Test F preemergence test; assay type: in vivo, Brachiaria platyphylla; conditions: scale 0 to 100
Outline: as §2

Virginia dayflower = experiment: Test F preemergence test; assay type: in vivo, Commelina virginica; conditions: 16 g ai/ha, preemergence; scale 0 to 100
Outline: as §2

annual bluegrass = experiment: Test F preemergence test; assay type: in vivo, Poa annua; conditions: scale 0 to 100
Outline: as §2

itchgrass = experiment: Test F preemergence test; assay type: in vivo, Rottboellia cochinchinensis; conditions: scale 0 to 100
Outline: as §2

field bindweed = experiment: Test F preemergence test; assay type: in vivo, Convolvulus arvensis; conditions: scale 0 to 100
Outline: as §2

common mallow = experiment: Test F preemergence test; assay type: in vivo, Malva sylvestris; conditions: scale 0 to 100
Outline: as §2

[3] = 62 g ai/ha, Preemergence, scale 0 to 100
[4] = 125 g ai/ha, preemergence, scale 0 (no effect) to 100 (complete control)
[5] = Postemergence, 125 g ai/ha, scale 0 to 100, 0 no effect, 100 complete control
[6] = Postemergence, 250 g ai/ha, scale 0 to 100, 0 no effect, 100 complete control
[7] = Preemergence, 31 g ai/ha, scale 0 to 100 (0 no effect, 100 complete control)
[8] = preemergence, 250 g ai/ha, scale 0 (no effect) to 100 (complete control)

SMILES: CCn1nc(C(F)(F)F)c(CS(=O)(=O)c2cc(C)cc[n+]2[O-])c1OCC(F)(F)F [Compound 64]
- Plant response rating, Barnyardgrass (barnyardgrass [1]; Postemergence, 125 g ai/ha): 90
- Barnyardgrass plant response rating (barnyardgrass [1]; Postemergence, 500 g ai/ha, 0 is no effect, 100 is complete control): 90
- Barnyardgrass plant response rating (barnyardgrass [1]; Preemergence, 125 g ai/ha, 0 no effect, 100 complete control): 70
- Plant response rating, Barnyardgrass (barnyardgrass [1]; Preemergence, 500 g ai/ha): 100
- Cocklebur plant response rating (cocklebur; [3]): 0
- Cocklebur plant response rating (cocklebur; [4]): 0
- Plant response rating (0 to 100), Cocklebur (cocklebur; Postemergence, 31 g ai/ha): 0
- Plant response rating, Cocklebur (cocklebur; Postemergence, 62 g ai/ha): 0
- Plant response rating, Cocklebur (cocklebur; Postemergence, 125 g ai/ha): 0
- Plant response rating, Cocklebur (cocklebur; Postemergence, 250 g ai/ha): 0
- Kochia plant response rating (kochia; [3]): 100
- Kochia plant response rating (kochia; [4]): 100
- Plant response rating (0 to 100), Kochia (kochia; Postemergence, 31 g ai/ha): 0
- Plant response rating, Kochia (kochia; Postemergence, 62 g ai/ha, scale 0 to 100, 0 no effect, 100 complete control): 0
- Plant response rating, Kochia (kochia; [5]): 0
- Plant response rating, Kochia (kochia; [6]): 0
- Plant response rating, Kochia (kochia; [7]): 100
- Kochia plant response rating (kochia; [8]): 100
- Velvetleaf plant response rating (velvetleaf; [3]): 100
- Velvetleaf plant response rating (velvetleaf; [4]): 100
- Plant response rating (0 to 100), Velvetleaf (velvetleaf; Postemergence, 31 g ai/ha): 0
- Plant response rating (0 to 100), Velvetleaf (velvetleaf; Postemergence, 62 g ai/ha): 0
- Plant response rating, Velvetleaf (velvetleaf; [5]): 0
- Plant response rating, Velvetleaf (velvetleaf; [6]): 40
- Plant response rating, Velvetleaf (velvetleaf; [7]): 45
- Velvetleaf plant response rating (velvetleaf; [8]): 100
- Plant response rating, Foxtail, Green (green foxtail; 16 g ai/ha, preemergence): 15
- Foxtail, Green plant response rating (green foxtail; 62 g ai/ha, Preemergence): 95
- Foxtail, Green plant response rating (green foxtail; 125 g ai/ha, preemergence): 100
- Plant response rating, Foxtail, Green (green foxtail; Preemergence, 31 g ai/ha): 60
- Plant response rating, Black Mustard (mustard; 16 g ai/ha, preemergence): 0
- Black Mustard plant response rating (mustard; 62 g ai/ha, Preemergence): 80
- Black Mustard plant response rating (mustard; 125 g ai/ha, preemergence): 90
- Plant response rating, Black Mustard (mustard; Preemergence, 31 g ai/ha): 0
- Plant response rating, Dallisgrass (dallisgrass; 16 g ai/ha, preemergence): 0
- Dallisgrass plant response rating (dallisgrass; 62 g ai/ha, Preemergence): 70
- Dallisgrass plant response rating (dallisgrass; 125 g ai/ha, preemergence): 90
- Plant response rating, Dallisgrass (dallisgrass; Preemergence, 31 g ai/ha): 35
- Plant response rating, Barnyardgrass (barnyardgrass [2]; 16 g ai/ha, preemergence, scale 0 to 100 (0 no effect, 100 complete control)): 65
- Barnyardgrass plant response rating (barnyardgrass [2]; [3]): 100
- Barnyardgrass plant response rating (barnyardgrass [2]; 125 g ai/ha, preemergence, scale 0 to 100): 100
- Plant response rating, Barnyardgrass (barnyardgrass [2]; Preemergence, 31 g ai/ha, scale 0 to 100): 80
- Plant response rating, Signalgrass (broadleaf signalgrass; 16 g ai/ha, preemergence): 30
- Signalgrass plant response rating (broadleaf signalgrass; 125 g ai/ha, preemergence): 100
- Plant response rating, Signalgrass (broadleaf signalgrass; Preemergence, 62 g ai/ha): 100
- Plant response rating, Signalgrass (broadleaf signalgrass; Preemergence, 31 g ai/ha): 30
- Plant response rating, Dayflower (Virginia dayflower): 0
- Plant response rating, Bluegrass (annual bluegrass; 16 g ai/ha, preemergence): 0
- Bluegrass plant response rating (annual bluegrass; 62 g ai/ha, Preemergence): 90
- Bluegrass plant response rating (annual bluegrass; 125 g ai/ha, preemergence): 90
- Plant response rating, Bluegrass (annual bluegrass; Preemergence, 31 g ai/ha): 0
- Plant response rating, Itchgrass (itchgrass; 16 g ai/ha, preemergence): 0
- Itchgrass plant response rating (itchgrass; 62 g ai/ha, Preemergence): 30
- Itchgrass plant response rating (itchgrass; 125 g ai/ha, preemergence): 75
- Plant response rating, Itchgrass (itchgrass; Preemergence, 31 g ai/ha): 30
- Plant response rating, Field Bindweed (field bindweed; 16 g ai/ha, preemergence): 0
- Field Bindweed plant response rating (field bindweed; 62 g ai/ha, Preemergence): 0
- Field Bindweed plant response rating (field bindweed; 125 g ai/ha, preemergence): 40
- Plant response rating, Field Bindweed (field bindweed; Preemergence, 31 g ai/ha): 0
- Plant response rating, Mallow (common mallow; 16 g ai/ha, preemergence): 0
- Mallow plant response rating (common mallow; 62 g ai/ha, Preemergence): 75
- Mallow plant response rating (common mallow; 125 g ai/ha, preemergence): 100
- Plant response rating, Mallow (common mallow; Preemergence, 31 g ai/ha): 35
